From patent US8436039B2, “Inhibitors of the ATB(0,+) transporter and uses thereof” (Georgia Health Sciences University Research Institute, Inc., priority 2008, dated 2013) come the findings set out here.

This assay deals with MCF10A and MDA-MB453 cell lines. The assay can be described thus: Cell cycle analysis (FACS, propidium iodide) in ATB^0,+-negative cell lines. The note with it: 2.5 mM; 24, 48 and 72 hours. It counts as cell-based, human. The protocol:
MCF10A (an ATB^0,+-negative non-malignant cell line), MCF7 (an ATB^0,+-positive malignant cell line) and MDA-MB453 (an ATB^0,+-negative malignant cell line) cells were cultured in 6-well plates in a regular culture medium in the presence or absence of α-methyl-DL-tryptophan (2.5 mM) for 24, 48 and 72 hours. Cells were fixed in 50% (v/v) ethanol, treated with 0.1% sodium citrate, 1 mg/ml RNase A and 50 μg/ml propidium iodide, and subjected to FACS (Becton Dickinson FACSCalibur™) analysis. The amount of DNA in these cells, detected as chromosome content by propidium iodide binding, was used to identify cells in various stages of cell cycle: G1/G0, 2N; S, 2-4 N; G2/M, 4N (where N is the normal chromosome content).
Since treatment with α-methyl-DL-tryptophan suppressed colony formation in malignant cell lines in an ATB^0,+-dependent manner, we investigated the influence of this treatment on cell cycle to determine which stage of the cycle is affected. We used three different cell lines in this experiment: MCF10A (non-malignant and ATB^0,+-negative), MCF7 (malignant and ATB^0,+-positive) and MDA-MB453 (malignant and ATB^0,+-negative) (FIG. 9). […] In contrast, the treatment affected the cell cycle progression in the ATB^0,+-positive MCF7 cell line. The cells were arrested at G1/G0 stage to a significant extent when treated with α-methyl-DL-tryptophan. […]

For the molecule `CC(N)(Cc1c[nH]c2ccccc12)C(=O)O` (racemic) [α-methyl-DL-tryptophan], the “effect on cell cycle” value was “no effect on cell cycle”.
